# Source: PMC6864482, “Novel C7-Substituted Coumarins as Selective Monoamine Oxidase Inhibitors: Discovery, Synthesis and Theoretical Simulation” (Molecules, 2019)
# Structures can show the parent of a compound that is named as a salt. Where two headings read alike, the source gives them in different places.
# Experiments:
# hMAO-B [1] = target: T1, hMAO-B (Homo sapiens, UniProt P27338); conditions: cited from earlier work; for IC50: read-out: MAO-B IC50
# T1 sequence (P27338 1-520): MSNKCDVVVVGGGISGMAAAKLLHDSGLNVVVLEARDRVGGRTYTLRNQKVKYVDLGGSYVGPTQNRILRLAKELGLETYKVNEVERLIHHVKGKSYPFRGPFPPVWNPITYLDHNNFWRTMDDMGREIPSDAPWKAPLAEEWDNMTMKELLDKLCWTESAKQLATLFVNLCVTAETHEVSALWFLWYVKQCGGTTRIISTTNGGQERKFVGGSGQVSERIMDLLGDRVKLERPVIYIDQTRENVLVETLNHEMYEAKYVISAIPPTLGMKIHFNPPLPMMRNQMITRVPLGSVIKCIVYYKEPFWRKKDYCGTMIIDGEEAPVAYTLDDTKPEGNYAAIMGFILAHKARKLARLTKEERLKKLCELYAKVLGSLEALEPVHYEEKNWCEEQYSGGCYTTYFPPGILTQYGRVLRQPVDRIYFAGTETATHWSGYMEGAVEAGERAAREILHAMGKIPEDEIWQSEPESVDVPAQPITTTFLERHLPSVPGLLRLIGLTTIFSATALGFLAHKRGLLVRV
# hMAO-A [2] = target: T2, hMAO-A (Homo sapiens, UniProt P21397); conditions: cited from earlier work
# T2 sequence (P21397 1-527): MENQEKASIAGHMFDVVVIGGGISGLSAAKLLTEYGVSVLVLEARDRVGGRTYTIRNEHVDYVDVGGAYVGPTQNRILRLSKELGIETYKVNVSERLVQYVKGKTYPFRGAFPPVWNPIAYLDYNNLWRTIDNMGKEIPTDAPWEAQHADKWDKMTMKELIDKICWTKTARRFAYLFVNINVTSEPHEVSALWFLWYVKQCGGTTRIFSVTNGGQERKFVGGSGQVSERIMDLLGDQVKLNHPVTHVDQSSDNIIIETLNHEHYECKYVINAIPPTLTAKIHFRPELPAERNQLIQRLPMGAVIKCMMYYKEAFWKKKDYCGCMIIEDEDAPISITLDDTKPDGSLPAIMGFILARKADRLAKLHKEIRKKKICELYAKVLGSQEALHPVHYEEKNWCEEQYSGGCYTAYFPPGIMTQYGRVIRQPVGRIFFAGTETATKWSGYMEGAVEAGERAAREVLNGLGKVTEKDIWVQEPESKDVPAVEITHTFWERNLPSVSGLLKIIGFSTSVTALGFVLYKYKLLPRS
# hMAO-B [3] = target: T1, hMAO-B; assay: MAO-Glo inhibition assay, hMAO-B; format: biochemical
# Method: (§1) The inhibition and IC50 values of the identified C7-substituted coumarin analogues were assayed by Shanghai ChemPartner Co. Ltd., using MAO-GloTM assay kit (Promega Corporation, V1402). Two human MAO enzymes (Cat#31502, Cat#31503) were purchased from Active Motif. Clorgyline and R(-)-deprenyl were purchased as reference drugs from Sigma (Cat. No. M3778) and Abcam (Cat. No. ab120604), respectively. The MAO inhibition assays were carried out in modified HEPES buffer in light of the manufacturer’s protocol. Firstly, the tested compounds in DMSO were transferred to a 384-well plate by Echo. The enzyme solutions were then added into the plate and the plate was incubated for 15 min at room temperature (r.t.). Secondly, the luciferin derivative substrate was added to initiate the reaction. After 60 min incubation at r.t., the Luciferin detection reagent was added to each well to terminate the reaction and generate the luminescent signal. Before reading the signal, the plate was incubated for 20 min at r.t. Finally, plate reader was used to measure and record the luminescent signal and corresponding data were processed using GraphPad Prism 5.
# hMAO-A [4] = target: T2, hMAO-A; assay: MAO-Glo inhibition assay, hMAO-A; format: biochemical
# Method: as §1
# [5] = previously identified BRS-3D hits
# [6] = purchased (Specs) or synthesized compounds
# [7] = purchased (Specs) or synthesized compounds, read-out: MAO-A IC50
# [8] = Table S3, Esuprone derivatives, read-out: MAO-A* IC50
# [9] = pIC50 = −log(IC50), previously identified BRS-3D hits
# [10] = previously identified BRS-3D hits, read-out: MAO-A IC50
# [11] = experimental activity of reference ligand C18 of 2V61, source not stated
smiles,measurement,setting,value
Cc1cc(=O)oc2cc(OCC(=O)N(C)C)c(Cl)cc12 [M34],MAO-B Avg. Inh% at 10 uM,hMAO-B [1]; [5],40%
same,MAO-A Avg. Inh% at 10 uM,hMAO-A [2]; [5],19%
Cc1c(Oc2nnc(-c3ccccc3)s2)ccc2c3c(c(=O)oc12)CCC3 [5d],melting point,,140 °C
same,IC50,hMAO-B [3]; [6],2300 nM
same,IC50,hMAO-A [4]; [7],96 nM
Cc1cc(=O)oc2cc(OCCOc3ccccc3)ccc12 [FR5],IC50,hMAO-B [3]; [6],15 nM
same,inhibition at 10 µM,hMAO-A [4],28%
same,IC50,hMAO-A [4]; [7],> 10000 nM
Cc1c(OC(=O)C2CC2)ccc2c3c(c(=O)oc12)CCC3 [FR1],inhibition at 10 µM,hMAO-B [3],75%
same,IC50,hMAO-B [3]; [6],> 1000 nM
same,IC50,hMAO-A [4]; [7],1.5 nM
"CCCc1cc(=O)oc2c(C)c(Oc3nnc(-c4ccccc4)s3)ccc12 [7k, 8-Methyl-7-((5-phenyl-1,3,4-thiadiazol-2-yl)oxy)-4-propyl-2H-chromen-2-one]",melting point,,110 to 112 °C
same,IC50,hMAO-B [3]; [6],120 nM
same,IC50,hMAO-A [4]; [7],21 nM
"CCCc1cc(=O)oc2c(C)c(OS(=O)(=O)c3ccc(C)cc3)ccc12 [7i, 8-Methyl-2-oxo-4-propyl-2H-chromen-7-yl 4-methylbenzenesulfonate]",IC50,"hMAO-B [3]; Table S3, Esuprone derivatives",4100 nM
same,IC50,hMAO-A [4]; [8],170 nM
"CCCc1cc(=O)oc2cc(Oc3nnc(-c4ccccc4)s3)ccc12 [7b, 7-((5-Phenyl-1,3,4-thiadiazol-2-yl)oxy)-4-propyl-2H-chromen-2-one]",melting point,,150 °C
same,IC50,hMAO-A [4]; [7],24 nM
"Cc1ccc(S(=O)(=O)Oc2ccc3c(C4CC4)cc(=O)oc3c2)cc1 [7e, 4-Cyclopropyl-2-oxo-2H-chromen-7-yl 4-methylbenzenesulfonate]",melting point,,132 to 134 °C
same,IC50,"hMAO-B [3]; Table S3, Esuprone derivatives",9500 nM
same,IC50,hMAO-A [4]; [8],1100 nM
"CCS(=O)(=O)Oc1ccc2c(C3CC3)cc(=O)oc2c1 [7d, 4-Cyclopropyl-2-oxo-2H-chromen-7-yl ethanesulfonate]",melting point,,92 °C
same,IC50,"hMAO-B [3]; Table S3, Esuprone derivatives",> 100000 nM
same,IC50,hMAO-A [4]; [8],1400 nM
C=CCOC(=O)COc1ccc2c3c(c(=O)oc2c1C)CCCC3 [FR3],inhibition at 10 µM,hMAO-B [3],66%
same,IC50,hMAO-B [3]; [6],> 5000 nM
same,IC50,hMAO-A [4]; [7],740 nM
"O=c1cc(C2CC2)c2ccc(OS(=O)(=O)c3ccc([N+](=O)[O-])cc3)cc2o1 [7f, 4-Cyclopropyl-2-oxo-2H-chromen-7-yl 4-nitrobenzenesulfonate]",IC50,"hMAO-B [3]; Table S3, Esuprone derivatives",9000 nM
same,IC50,hMAO-A [4]; [8],95 nM
Cc1cc(=O)oc2cc(OCC(=O)N(C)C)ccc12 [M33],MAO-B Avg. Inh% at 10 uM,hMAO-B [1]; [5],8%
same,MAO-A Avg. Inh% at 10 uM,hMAO-A [2]; [5],41%
"CCCc1cc(=O)oc2c(C)c(OS(=O)(=O)CC)ccc12 [7h, 8-Methyl-2-oxo-4-propyl-2H-chromen-7-yl ethanesulfonate]",melting point,,78 to 80 °C
same,IC50,"hMAO-B [3]; Table S3, Esuprone derivatives",9900 nM
same,IC50,hMAO-A [4]; [8],910 nM
"O=c1cc(C2CC2)c2ccc(OS(=O)(=O)c3ccc([N+](=O)[O-])cc3)cc2o1 (as salt: benzenesulfonate) [7f, 4-Cyclopropyl-2-oxo-2H-chromen-7-yl 4-nitrobenzenesulfonate]",melting point,,192 to 194 °C
Cc1c(C)c2cc(Cl)c(OCC(=O)N(C)C)cc2oc1=O [M32],MAO-B Avg. Inh% at 10 uM,hMAO-B [1]; [5],90%
same,MAO-B pIC50,hMAO-B [1]; [9],6.2
same,IC50,hMAO-B [1]; [5],600 nM
same,MAO-A Avg. Inh% at 10 uM,hMAO-A [2]; [5],12%
same,MAO-A pIC50,hMAO-A [2]; [9],4.1
same,IC50,hMAO-A [2]; [10],81300 nM
CCc1cc(=O)oc2cc(OCC(=O)N(C)C)ccc12 [M30],MAO-B Avg. Inh% at 10 uM,hMAO-B [1]; [5],22%
same,MAO-A Avg. Inh% at 10 uM,hMAO-A [2]; [5],56%
"Cc1c(C)c2cc(Cl)c(Oc3nnc(-c4ccccc4)s3)cc2oc1=O [7c, 6-Chloro-3,4-dimethyl-7-((5-phenyl-1,3,4-thiadiazol-2-yl)oxy)-2H-chromen-2-one]",melting point,,171 to 173 °C
same,IC50,hMAO-B [3]; [6],440 nM
same,IC50,hMAO-A [4]; [7],810 nM
O=C(COc1ccc2c3c(c(=O)oc2c1)CCC3)c1ccc(Cl)cc1 [FR4],IC50,hMAO-B [3]; [6],18 nM
same,inhibition at 10 µM,hMAO-A [4],23%
same,IC50,hMAO-A [4]; [7],> 10000 nM
Cc1c(OCC(=O)N(C)C)ccc2c3c(c(=O)oc12)CCC3 [FR2],inhibition at 10 µM,hMAO-B [3],12%
same,IC50,hMAO-B [3]; [6],> 10000 nM
same,IC50,hMAO-A [4]; [7],2820 nM
"O=c1cc(C2CC2)c2ccc(Oc3nnc(-c4ccccc4)s3)cc2o1 [7g, 4-Cyclopropyl-7-((5-phenyl-1,3,4-thiadiazol-2-yl)oxy)-2H-chromen-2-one]",melting point,,158 to 160 °C
same,IC50,hMAO-B [3]; [6],6200 nM
same,IC50,hMAO-A [4]; [7],2000 nM
"CCCc1cc(=O)oc2c(C)c(OS(=O)(=O)c3ccc([N+](=O)[O-])cc3)ccc12 (as salt: benzenesulfonate) [7j, 8-Methyl-2-oxo-4-propyl-2H-chromen-7-yl 4-nitrobenzenesulfonate]",melting point,,171 to 174 °C
CCCc1cc(=O)oc2cc(OCC(=O)N(C)C)ccc12 [M31],MAO-B Avg. Inh% at 10 uM,hMAO-B [1]; [5],16%
same,MAO-B pIC50,hMAO-B [1]; [9],4.2
same,IC50,hMAO-B [1]; [5],64600 nM
same,MAO-A Avg. Inh% at 10 uM,hMAO-A [2]; [5],92%
same,MAO-A pIC50,hMAO-A [2]; [9],6.3
same,IC50,hMAO-A [2]; [10],500 nM
"Cc1c(OS(=O)(=O)c2ccc([N+](=O)[O-])cc2)ccc2c3c(c(=O)oc12)CCC3 [5c, 6-Methyl-4-oxo-1,2,3,4-tetrahydrocyclopenta[c]chromen-7-yl 4-nitrobenzenesulfonate]",IC50,"hMAO-B [3]; Table S3, Esuprone derivatives",590 nM
same,IC50,hMAO-A [4]; [8],< 5 nM
same,IC50,hMAO-A [4]; read-out: hMAO-A IC50,~5 nM
"CCS(=O)(=O)Oc1ccc2c(C)c(C)c(=O)oc2c1 [Esuprone, reference compound]",IC50,"hMAO-A [2]; comparison value under Table S3, MAO-A by context, source not stated, read-out: IC50 value of Esuprone",10.7 nM
Cc1cc(=O)oc2c(C)c(OCC(=O)N(C)C)ccc12 [M29],MAO-B Avg. Inh% at 10 uM,hMAO-B [1]; [5],12%
same,MAO-B pIC50,hMAO-B [1]; [9],4
same,MAO-A Avg. Inh% at 10 uM,hMAO-A [2]; [5],75%
same,MAO-A pIC50,hMAO-A [2]; [9],5.6
same,IC50,hMAO-A [2]; [10],2290 nM
"CNCc1cc(=O)oc2cc(OCc3cccc(Cl)c3)ccc12 [C18, reference compound]",MAO-B pIC50,hMAO-B [1]; [11],7
same,MAO-A pIC50,hMAO-A [2]; [11],4.8
"CCCc1cc(=O)oc2c(C)c(OS(=O)(=O)c3ccc(C)cc3)ccc12 (as salt: benzenesulfonate) [7i, 8-Methyl-2-oxo-4-propyl-2H-chromen-7-yl 4-methylbenzenesulfonate]",melting point,,144 to 146 °C
"Cc1c(OS(=O)(=O)c2ccc([N+](=O)[O-])cc2)ccc2c3c(c(=O)oc12)CCC3 (as salt: benzenesulfonate) [5c, 6-Methyl-4-oxo-1,2,3,4-tetrahydrocyclopenta[c]chromen-7-yl 4-nitrobenzenesulfonate]",melting point,,192 to 194 °C
"CCCc1cc(=O)oc2c(C)c(OS(=O)(=O)c3ccc([N+](=O)[O-])cc3)ccc12 [7j, 8-Methyl-2-oxo-4-propyl-2H-chromen-7-yl 4-nitrobenzenesulfonate]",IC50,"hMAO-B [3]; Table S3, Esuprone derivatives",1700 nM
same,IC50,hMAO-A [4]; [8],29 nM
"Cc1ccc(S(=O)(=O)Oc2ccc3c4c(c(=O)oc3c2C)CCC4)cc1 [5b, 6-Methyl-4-oxo-1,2,3,4-tetrahydrocyclopenta[c]chromen-7-yl 4-methylbenzenesulfonate]",melting point,,152 °C
same,IC50,"hMAO-B [3]; Table S3, Esuprone derivatives",4900 nM
same,IC50,hMAO-A [4]; [8],12 nM
"CCS(=O)(=O)Oc1ccc2c3c(c(=O)oc2c1C)CCC3 [5a, 6-Methyl-4-oxo-1,2,3,4-tetrahydrocyclopenta[c]chromen-7-yl ethanesulfonate]",melting point,,150 to 151 °C
same,IC50,"hMAO-B [3]; Table S3, Esuprone derivatives",2300 nM
same,IC50,hMAO-A [4]; [8],11 nM
Cc1cc(=O)oc2c(C)c(Oc3nnc(-c4ccccc4)s3)ccc12 [SP1],inhibition at 10 µM,hMAO-B [3],64%
same,IC50,hMAO-B [3]; [6],> 5000 nM
same,IC50,hMAO-A [4]; [7],19 nM
